EP0429372A1, “2-Azolyl nicotinate derivatives as herbicides” (RHONE-POULENC AGROCHIMIE, priority 1989, dated 1991)

Tests used:
Format in all cases: in vivo
Lolium multiflorum = experiment: Example B: post-emergence herbicidal application, pot test; conditions: 4000 g/ha, 576 h
From the text: (§1) Dans des pots de 7 x 7 x 8 cm remplis de terre agricole légère, on sème un nombre de graines déterminé en fonction de l'espèce végétale et de la grosseur de la graine.
(§2) On recouvre ensuite les graines d'une couche de terre d'environ 3 mm d'épaisseur et on laisse germer la graine jusqu'à ce qu'elle donne naissance à une plantule au stade convenable. Le stade de traitement pour les graminées est le stade "deuxième feuille en formation ". Le stade de traitement pour les dicotylédones, est le stade "cotylédons étalés, première feuille vraie en développement".
(§3) Les pots sont alors traités par pulvérisation de bouillie en quantité correspondant à une dose volumique d'application de 500 l/ha et contenant la matière active à la concentration désirée.
(§4) La bouille a été préparée de la même manière qu'à l'exemple A.
(§5) Les pots traités sont ensuite placés dans des bacs destinés à recevoir l'eau d'arrosage, en subirrigation, et maintenus pendant 24 jours à température ambiante sous 70 % d'humidité relative.
(§6) Au bout de 24 jours, on mesure un pourcentage (D) de destruction du nombre de pieds dans le pot traité par rapport au nombre de plantes dans les pots non traités (témoin). On mesure, sur les plantes traitées restantes, le pourcentage de réduction de taille (RT) par rapport aux plantes témoin.
(§7) Le pourcentage du volume foliaire non détruit par le produit est donc donné par la formule : [formula]
(§8) Cette valeur A est transformée en notation de 0 à 5 selon l'échelle suivante :
(§9) Les résultats obtenus sont présentés après le tableau A pour des doses d'application de 4000 g/ha.

Echinochloa crusgalli = experiment: as above
From the text: as §1, §2, §3, §4, §5, §6, §7, §8, §9

Ipomea purpurea = experiment: as above
From the text: as §1, §2, §3, §4, §5, §6, §7, §8, §9

Sinapis alba = experiment: as above
From the text: as §1, §2, §3, §4, §5, §6, §7, §8, §9

Digitaria sanguinalis = experiment: as above
From the text: as §1, §2, §3, §4, §5, §6, §7, §8, §9

Solanum nigrum [1] = experiment: as above
From the text: as §1, §2, §3, §4, §5, §6, §7, §8, §9

Zea mays = experiment: Example C: selectivity test in major crops, post-emergence application; conditions: crop (Maïs), dose 2 kg/ha, 24 days, score 0-5, 0 or 1 = selective; note: ranges in brackets are in %
From the text: as §1
as §2, with “formation".” for “formation ".”
as §3
(§10) La bouillie a été préparée de la même manière qu'à l'exemple A.
as §5, §6
(§11) Le pourcentage de volume foliaire non détruit par le produit est donc donné par la formule : [formula]
as §8
(§12) Ainsi, un produit est jugé comme sélectif vis à vis de la culture lorsque la valeur A notée est de 0 ou 1.
(§13) Les résultats obtenus sont présentés dans l'exemple C pour des doses d'application comprises entre 0,5 et 4 kg de matière active par hectare selon les produits.

Xanthium pennsylvanicum = experiment: as above
From the text: as §1
as §2, with “formation".” for “formation ".”
as §3, §10, §5, §6, §11, §8, §12, §13

Oryza sativa = experiment: as above; conditions: crop (Riz), dose 2 kg/ha, 24 days, score 0-5, 0 or 1 = selective
From the text: as §1
as §2, with “formation".” for “formation ".”
as §3, §10, §5, §6, §11, §8, §12, §13

Ipomea pupurea = experiment: as above
From the text: as §1
as §2, with “formation".” for “formation ".”
as §3, §10, §5, §6, §11, §8, §12, §13

Viola tricolor = experiment: as above
From the text: as §1
as §2, with “formation".” for “formation ".”
as §3, §10, §5, §6, §11, §8, §12, §13

Sesbania exaltata = experiment: as above
From the text: as §1
as §2, with “formation".” for “formation ".”
as §3, §10, §5, §6, §11, §8, §12, §13

Triticum aestivum = experiment: as above; conditions: crop (Blé), dose 2 kg/ha, 24 days, score 0-5, 0 or 1 = selective
From the text: as §1
as §2, with “formation".” for “formation ".”
as §3, §10, §5, §6, §11, §8, §12, §13

Solanum nigrum [2] = experiment: as above
From the text: as §1
as §2, with “formation".” for “formation ".”
as §3, §10, §5, §6, §11, §8, §12, §13

[3] = 4 kg/ha, rated after 24 days, score 0-5 from % leaf volume not destroyed
[4] = weed, dose 1 kg/ha, 24 days, score 0-5
Throughout, for ACTIVITE HERBICIDE DE POST LEVEE O R Y: ranges in brackets are in %.
Throughout, for ACTIVITE HERBICIDE DE POST LEVEE T R Z: ranges in brackets are in %.

## O=C(O)c1cccnc1-c1n[nH]c(-c2cc(Cl)ccc2Cl)n1 [compound 73]
Lolium multiflorum
  ACTIVITE DE POST-LEVEE LOL: 2 (50 à 70)
Echinochloa crusgalli; 4000 g/ha, 576 h
  ACTIVITE DE POST-LEVEE ECH: 3 (30 à 50)
Ipomea purpurea; 4000 g/ha, 576 h
  ACTIVITE DE POST-LEVEE IPO: 3 (30 à 50)
Sinapis alba; 4000 g/ha, 576 h
  ACTIVITE DE POST-LEVEE SIN: 3 (30 à 50)
Digitaria sanguinalis; 4000 g/ha, 576 h
  ACTIVITE DE POST-LEVEE DIG: 2 (50 à 70)
Solanum nigrum [1]; 4000 g/ha, 576 h
  ACTIVITE DE POST-LEVEE SOL: 3 (30 à 50)

## COC(=O)c1cccnc1-c1nc(-c2ccccc2)nn1S(=O)(=O)c1ccccc1Cl [compound 24]
Lolium multiflorum
  ACTIVITE DE POST-LEVEE LOL: 0 (90 à 100)
Echinochloa crusgalli; 4000 g/ha, 576 h
  ACTIVITE DE POST-LEVEE ECH: 0 (90 à 100)
Ipomea purpurea; 4000 g/ha, 576 h
  ACTIVITE DE POST-LEVEE IPO: 3 (30 à 50)
Sinapis alba; 4000 g/ha, 576 h
  ACTIVITE DE POST-LEVEE SIN: 3 (30 à 50)
Digitaria sanguinalis; 4000 g/ha, 576 h
  ACTIVITE DE POST-LEVEE DIG: 0 (90 à 100)
Solanum nigrum [1]; 4000 g/ha, 576 h
  ACTIVITE DE POST-LEVEE SOL: 3 (30 à 50)

## O=C(O)c1cccnc1-c1n[nH]c(Cc2ccccc2)n1 [compound 45]
Lolium multiflorum
  ACTIVITE DE POST-LEVEE LOL: 2 (50 à 70)
Echinochloa crusgalli; 4000 g/ha, 576 h
  ACTIVITE DE POST-LEVEE ECH: 3 (30 à 50)
Ipomea purpurea; 4000 g/ha, 576 h
  ACTIVITE DE POST-LEVEE IPO: 3 (30 à 50)
Sinapis alba; 4000 g/ha, 576 h
  ACTIVITE DE POST-LEVEE SIN: 2 (50 à 70)
Digitaria sanguinalis; 4000 g/ha, 576 h
  ACTIVITE DE POST-LEVEE DIG: 3 (30 à 50)
Solanum nigrum [1]; 4000 g/ha, 576 h
  ACTIVITE DE POST-LEVEE SOL: 3 (30 à 50)

## O=C(O)c1cccnc1-c1nc(-c2ccccc2)nn1S(=O)(=O)N1CCCC1 [compound 15]
Lolium multiflorum
  ACTIVITE DE POST-LEVEE LOL: 3 (30 à 50)
Echinochloa crusgalli; 4000 g/ha, 576 h
  ACTIVITE DE POST-LEVEE ECH: 3 (30 à 50)
Ipomea purpurea; 4000 g/ha, 576 h
  ACTIVITE DE POST-LEVEE IPO: 2 (50 à 70)
Sinapis alba; 4000 g/ha, 576 h
  ACTIVITE DE POST-LEVEE SIN: 1 (70 à 90)
Digitaria sanguinalis; 4000 g/ha, 576 h
  ACTIVITE DE POST-LEVEE DIG: 3 (30 à 50)
Solanum nigrum [1]; 4000 g/ha, 576 h
  ACTIVITE DE POST-LEVEE SOL: 1 (70 à 90)

## CN(C)S(=O)(=O)n1nc(-c2ccccc2)nc1-c1ncccc1C(=O)O [compound 6]
Echinochloa crusgalli; 4000 g/ha, 576 h
  ACTIVITE DE POST-LEVEE ECH: 0 (90 à 100)
Ipomea purpurea; 4000 g/ha, 576 h
  ACTIVITE DE POST-LEVEE IPO: 4 (10 à 30)
Sinapis alba; 4000 g/ha, 576 h
  ACTIVITE DE POST-LEVEE SIN: 5 (O à 10)
Digitaria sanguinalis; 4000 g/ha, 576 h
  ACTIVITE DE POST-LEVEE DIG: 0 (90 à 100)
Solanum nigrum [1]; 4000 g/ha, 576 h
  ACTIVITE DE POST-LEVEE SOL: 5 (O à 10)
Zea mays
  ACTIVITE HERBICIDE DE POST LEVEE Z E A: 0 (90 à 100)
Xanthium pennsylvanicum; 2000 g/ha, 576 h
  ACTIVITE HERBICIDE DE POST LEVEE X A N: 4 (10 à 30)
Oryza sativa
  ACTIVITE HERBICIDE DE POST LEVEE O R Y: 0 (90 à 100)
Ipomea pupurea; 2000 g/ha, 576 h
  ACTIVITE HERBICIDE DE POST LEVEE I P O: 5 (O à 10)
Viola tricolor; 2000 g/ha, 576 h
  ACTIVITE HERBICIDE DE POST LEVEE V I O: 4 (10 à 30)
Sesbania exaltata; 2000 g/ha, 576 h
  ACTIVITE HERBICIDE DE POST LEVEE S E S: 5 (O à 10)
Triticum aestivum
  ACTIVITE HERBICIDE DE POST LEVEE T R Z: 0 (90 à 100)
Solanum nigrum [2]; 2000 g/ha, 576 h
  ACTIVITE HERBICIDE DE POST LEVEE S O L: 5 (O à 10)

## CN(C)S(=O)(=O)n1c(-c2ncccc2C(=O)O)nc2ccccc21 [compound 75, 2-(1-N,N diméthylsulfamoyl 2-benzimidazolyl) 3-carboxy pyridine]
Echinochloa crusgalli; [3]
  ACTIVITE DE POST-LEVEE ECH: 0 (90 à 100)
Ipomea purpurea; [3]
  ACTIVITE DE POST-LEVEE IPO: 4 (10 à 30)
Sinapis alba; [3]
  ACTIVITE DE POST-LEVEE SIN: 5 (O à 10)
Digitaria sanguinalis; [3]
  ACTIVITE DE POST-LEVEE DIG: 0 (90 à 100)
Solanum nigrum [1]; [3]
  ACTIVITE DE POST-LEVEE SOL: 5 (O à 10)
Xanthium pennsylvanicum; [4]
  ACTIVITE HERBICIDE DE POST LEVEE X A N: 5 (O à 10)
Ipomea pupurea; weed, post-emergence, dose 1 kg/ha, 24 days, score 0-5
  ACTIVITE HERBICIDE DE POST LEVEE I P O: 5 (O à 10)
Viola tricolor; [4]
  ACTIVITE HERBICIDE DE POST LEVEE V I O: 4 (10 à 30)
Sesbania exaltata; [4]
  ACTIVITE HERBICIDE DE POST LEVEE S E S: 5 (O à 10)
Solanum nigrum [2]; [4]
  ACTIVITE HERBICIDE DE POST LEVEE S O L: 5 (O à 10)

## O=C(O)c1cccnc1-c1n[nH]c(-c2ccc(Cl)cc2Cl)n1 [compound 43]
Lolium multiflorum
  ACTIVITE DE POST-LEVEE LOL: 3 (30 à 50)
Echinochloa crusgalli; 4000 g/ha, 576 h
  ACTIVITE DE POST-LEVEE ECH: 4 (10 à 30)
Ipomea purpurea; 4000 g/ha, 576 h
  ACTIVITE DE POST-LEVEE IPO: 4 (10 à 30)
Sinapis alba; 4000 g/ha, 576 h
  ACTIVITE DE POST-LEVEE SIN: 5 (O à 10)
Digitaria sanguinalis; 4000 g/ha, 576 h
  ACTIVITE DE POST-LEVEE DIG: 3 (30 à 50)
Solanum nigrum [1]; 4000 g/ha, 576 h
  ACTIVITE DE POST-LEVEE SOL: 3 (30 à 50)

## O=C(O)c1cccnc1-c1n[nH]c(-c2cccc(Cl)c2)n1 [compound 48]
Lolium multiflorum
  ACTIVITE DE POST-LEVEE LOL: 2 (50 à 70)
Echinochloa crusgalli; 4000 g/ha, 576 h
  ACTIVITE DE POST-LEVEE ECH: 3 (30 à 50)
Ipomea purpurea; 4000 g/ha, 576 h
  ACTIVITE DE POST-LEVEE IPO: 3 (30 à 50)
Sinapis alba; 4000 g/ha, 576 h
  ACTIVITE DE POST-LEVEE SIN: 2 (50 à 70)
Digitaria sanguinalis; 4000 g/ha, 576 h
  ACTIVITE DE POST-LEVEE DIG: 3 (30 à 50)
Solanum nigrum [1]; 4000 g/ha, 576 h
  ACTIVITE DE POST-LEVEE SOL: 1 (70 à 90)

## CCN(CC)S(=O)(=O)n1nc(-c2ccccc2)nc1-c1ncccc1C(=O)O [compound 4]
Echinochloa crusgalli; 4000 g/ha, 576 h
  ACTIVITE DE POST-LEVEE ECH: 3 (30 à 50)
Ipomea purpurea; 4000 g/ha, 576 h
  ACTIVITE DE POST-LEVEE IPO: 2 (50 à 70)
Sinapis alba; 4000 g/ha, 576 h
  ACTIVITE DE POST-LEVEE SIN: 2 (50 à 70)
Digitaria sanguinalis; 4000 g/ha, 576 h
  ACTIVITE DE POST-LEVEE DIG: 3 (30 à 50)
Solanum nigrum [1]; 4000 g/ha, 576 h
  ACTIVITE DE POST-LEVEE SOL: 1 (70 à 90)
